These results are taken from paper PMC7817177 (eLife, 2021).

In assay [1] the target is T1, ARL3 (Homo sapiens, UniProt P36405).
T1 construct: full-length, C-terminal His6 tag (untagged thrombin-cut version in some assays), E. coli BL21-CodonPlus(DE3)-RIL
The assay is described as follows: fluorescence polarisation, competition with mantGDP. Type of assay: binding. The following applies: 2 uM mantGDP, 2 uM ARL3-GDP, 2 uM ARL13B 18-278 (GEF) present, pH 7.5, 5 mM MgCl2, room temperature, competitive. (Polarisation of emitted light reports the rotation of a fluorescent probe.)

In assay [2] the target is T2, ARL3^ΔN (ARL3^17-182) (Homo sapiens, UniProt P36405).
T2 construct: residues 17-182 (N-terminal helix removed), C-terminal His6 tag, E. coli
As to the kind of experiment: fluorescence polarisation nucleotide exchange, displacement of mantGDP. The assay is classed as binding. The following applies: 150 uM GppNHp with ARL13B 18-278 (GEF); competitive.

The target in assay [3] is ADP-ribosylation factor-like 3 (ARL3), full length (human, UniProt P36405 1-182). The assay is described as follows: cell-based or functional assay.
Sequence of ADP-ribosylation factor-like 3 (ARL3), full length (P36405 whole entry): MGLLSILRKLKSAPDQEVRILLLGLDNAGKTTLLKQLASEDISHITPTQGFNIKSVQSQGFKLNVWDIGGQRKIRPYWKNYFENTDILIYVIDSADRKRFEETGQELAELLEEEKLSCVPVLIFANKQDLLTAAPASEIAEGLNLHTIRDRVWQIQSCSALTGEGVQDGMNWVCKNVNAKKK

T1 sequence (P36405 2-182): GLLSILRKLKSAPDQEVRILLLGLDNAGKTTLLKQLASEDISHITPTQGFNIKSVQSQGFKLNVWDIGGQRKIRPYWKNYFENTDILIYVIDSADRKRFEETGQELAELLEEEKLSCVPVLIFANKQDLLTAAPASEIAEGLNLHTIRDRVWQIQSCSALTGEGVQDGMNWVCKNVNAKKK
T2 sequence (P36405 17-182, stated change not applied): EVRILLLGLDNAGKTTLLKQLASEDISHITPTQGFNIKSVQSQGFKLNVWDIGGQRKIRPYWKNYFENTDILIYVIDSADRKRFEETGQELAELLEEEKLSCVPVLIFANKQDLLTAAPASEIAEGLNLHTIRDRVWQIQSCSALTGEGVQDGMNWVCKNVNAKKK

Consider `Nc1nc2c(ncn2[C@@H]2O[C@H](COP(=O)(O)OP(=O)(O)NP(=O)(O)O)[C@@H](O)[C@H]2O)c(=O)[nH]1` [GppNHp], for which the “% mantGDP binding relative to no unlabelled nucleotide” value in assay [1] (40 uM unlabelled GppNHp) is reported as 83.7%. Also, in assay [2], the “fluorescence polarisation nucleotide exchange, displacement of mantGDP” value was “ARL3^ΔN undergoes significant nucleotide exchange upon the addition of ARL13B”.

In the case of `Nc1nc2c(ncn2[C@@H]2O[C@H](COP(=O)(O)OP(=O)(O)OP(=O)(O)O)[C@@H](O)[C@H]2O)c(=O)[nH]1` [GTP], the “% mantGDP binding relative to no unlabelled nucleotide” value in assay [1] (40 uM unlabelled GTP) was 53%.

In the case of `Nc1nc2c(ncn2[C@@H]2O[C@H](COP(=O)(O)OP(=O)(O)O)[C@@H](O)[C@H]2O)c(=O)[nH]1` [GDP], the “% mantGDP binding relative to no unlabelled nucleotide” value in assay [1] (40 uM unlabelled GDP) is “excess unlabelled GDP was able to compete with mantGDP”.

B1: GST-tagged binder of ARL2 (BART), full length (natural protein, human, UniProt Q9Y2Y0 1-163, looked up)
chain: MDALEGESFALSFSSASDAEFDAVVGYLEDIIMDDEFQLLQRNFMDKYYLEFEDTEENKLIYTPIFNEYISLVEKYIEEQLLQRIPEFNMAAFTTTLQHHKDEVAGDIFDMLLTFTDFLAFKEMFLDYRAEKEGRGLDLSSGLVVTSLCKSSSLPASQNNLRH
Regarding B1, the “acceleration by 20 µM BART of the exchange of 2 µM ARL3mantGDP with 150 µM unlabelled GDP and 10 µM ARL13B^18-278 (fluorescence polarisation)” value in assay [3] is about 70 fold.
